What follows are compounds tested against T1, human calcium-sensing receptor (CaSR) (Homo sapiens, UniProt P41180) (assay: intracellular Ca assay, CaSR antagonist activity in HEK293/hCaSR cells). Details: Fura2-AM, inhibition of response to calcium chloride ligand solution, read-out: IC50 values according to the intracellular Ca assay (CaSR antagonist activity).
T1 construct: expressed in transfected cells
T1 sequence (P41180 20-1078): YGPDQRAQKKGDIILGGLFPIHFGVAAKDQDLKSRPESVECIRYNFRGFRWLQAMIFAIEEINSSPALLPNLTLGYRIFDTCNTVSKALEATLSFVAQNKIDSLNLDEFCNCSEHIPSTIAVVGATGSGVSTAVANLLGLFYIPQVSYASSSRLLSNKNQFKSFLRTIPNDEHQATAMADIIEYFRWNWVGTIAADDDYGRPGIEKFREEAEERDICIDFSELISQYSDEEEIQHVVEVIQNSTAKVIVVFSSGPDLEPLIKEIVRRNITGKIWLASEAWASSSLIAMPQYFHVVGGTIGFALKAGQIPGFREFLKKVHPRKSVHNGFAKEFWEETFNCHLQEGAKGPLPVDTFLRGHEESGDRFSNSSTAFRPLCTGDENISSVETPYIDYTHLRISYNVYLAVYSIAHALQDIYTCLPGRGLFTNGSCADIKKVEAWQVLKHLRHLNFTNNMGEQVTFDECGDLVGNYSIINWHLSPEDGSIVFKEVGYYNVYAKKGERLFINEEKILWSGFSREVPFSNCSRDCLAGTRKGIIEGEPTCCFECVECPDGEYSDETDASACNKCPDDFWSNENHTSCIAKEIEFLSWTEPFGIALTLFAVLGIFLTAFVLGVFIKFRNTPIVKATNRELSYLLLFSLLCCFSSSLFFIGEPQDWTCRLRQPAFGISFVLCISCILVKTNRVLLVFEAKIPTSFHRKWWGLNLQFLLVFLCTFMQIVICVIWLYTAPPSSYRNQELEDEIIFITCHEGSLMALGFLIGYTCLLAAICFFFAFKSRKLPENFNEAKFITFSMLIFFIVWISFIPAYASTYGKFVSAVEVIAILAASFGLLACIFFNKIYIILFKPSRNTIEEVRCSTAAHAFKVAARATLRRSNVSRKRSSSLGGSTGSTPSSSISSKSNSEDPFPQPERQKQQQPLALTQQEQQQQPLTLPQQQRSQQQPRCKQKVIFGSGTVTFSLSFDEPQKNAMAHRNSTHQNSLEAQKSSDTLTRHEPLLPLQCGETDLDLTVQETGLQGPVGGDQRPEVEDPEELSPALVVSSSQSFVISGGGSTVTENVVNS
Assay type: cell-based
How it was run: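 HEK293/hCaSR cells were loaded with Fura2-AM and pre-incubated with compound for 160 s at 37° C in HEPES buffer (pH 7.4, 0.8 mM CaCl2), then challenged with calcium ligand solution. Read-out was the peak 340/380 nm fluorescence ratio; inhibition is relative to no-compound (0%) and no-calcium-ligand (100%) controls.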

IC50	SMILES
0.3 to 1 µM	Cc1cc(-c2ccc(S(=O)(=O)N(C)C[C@H](O)CNC(C)(C)Cc3ccc4ccccc4c3)cc2)ccc1C(=O)O [Exp. 3-33, (R)-4′-(N-(2-hydroxy-3-(2-methyl-1-(naphthalen-2-yl)propan-2-ylamino)propyl)-N-methylsulfamoyl)-3-methylbiphenyl-4-carboxylic acid]
≤ 0.3 µM	CCc1cc(-c2c(F)cccc2CCC(=O)O)ccc1S(=O)(=O)N(C)C[C@H](O)CNC(C)(C)CCCc1ccccc1 [Exp. 5-74, (R)-3-(3′-ethyl-6-fluoro-4′-(N-(2-hydroxy-3-(2-methyl-5-phenylpentan-2-ylamino)propyl)-N-methylsulfamoyl)biphenyl-2-yl)propionic acid]
1 to 3 µM	CN(C[C@H](O)CNC(C)(C)Cc1ccc2ccccc2c1)S(=O)(=O)Cc1ccccc1-c1cc(F)cc(C(=O)O)c1 [Exp. 3-85, (R)-5-fluoro-2′-((N-(2-hydroxy-3-(2-methyl-1-(naphthalen-2-yl)propan-2-ylamino)propyl)-N-methylsulfamoyl)methyl)biphenyl-3-carboxylic acid]
0.3 to 1 µM	CN(C[C@H](O)CNC(C)(C)Cc1ccc2ccccc2c1)S(=O)(=O)c1cccc(-c2ccc(CCC(=O)O)cc2)c1 [Exp. 3-15, (R)-3-(3′-(N-(2-hydroxy-3-(2-methyl-1-(naphthalen-2-yl)propan-2-ylamino)propyl)-N-methylsulfamoyl)biphenyl-4-yl)propionic acid]
0.3 to 1 µM	Cc1ccc(CC(C)(C)NC[C@@H](O)CN(C)S(=O)(=O)c2cccc(-c3ccc(C(=O)O)cc3F)c2)cc1F [Exp. 3-67, (R)-2-fluoro-3′-(N-(3-(1-(3-fluoro-4-methylphenyl)-2-methylpropan-2-ylamino)-2-hydroxypropyl)-N-methylsulfamoyl)biphenyl-4-carboxylic acid]
≤ 0.3 µM	CN(C[C@H](O)CNC(C)(C)CC1Cc2ccccc2C1)S(=O)(=O)c1c(Cl)cc(-c2cccc(C(=O)O)c2)cc1Cl [Exp. 3-126, (R)-3′,5′-dichloro-4′-(N-(3-(1-(2,3-dihydro-1H-inden-2-yl)-2-methylpropan-2-ylamino)-2-hydroxypropyl)-N-methylsulfamoyl)biphenyl-3-carboxylic acid]
≤ 0.3 µM	CN(C[C@H](O)CNC(C)(C)CC1Cc2ccccc2C1)S(=O)(=O)c1cccc(-c2ccc(C(=O)O)cc2)c1 [Exp. 3-50, (R)-3′-(N-(3-(1-(2,3-dihydro-1H-inden-2-yl)-2-methylpropan-2-ylamino)-2-hydroxypropyl)-N-methylsulfamoyl)biphenyl-4-carboxylic acid]
≤ 0.3 µM	CN(C[C@H](O)CNC(C)(C)CC1Cc2ccccc2C1)S(=O)(=O)c1cccc(-c2ccc(OCC(=O)O)c(Cl)c2)c1 [Exp. 3-223, (R)-2-(3-chloro-3′-(N-(3-(1-(2,3-dihydro-1H-inden-2-yl)-2-methylpropan-2-ylamino)-2-hydroxypropyl)-N-methylsulfamoyl)biphenyl-4-yloxy)acetic acid]
0.3 to 1 µM	CN(C[C@H](O)CNC(C)(C)Cc1ccc2ccccc2c1)S(=O)(=O)c1ccc(-c2ccc(C(=O)O)cc2F)cc1 [Exp. 3-35, (R)-2-fluoro-4′-(N-(2-hydroxy-3-(2-methyl-1-(naphthalen-2-yl)propan-2-ylamino)propyl)-N-methylsulfamoyl)biphenyl-4-carboxylic acid]
≤ 0.3 µM	CN(C[C@H](O)CNC(C)(C)CC1Cc2ccccc2C1)S(=O)(=O)c1ccc(-c2ccc(F)c(CCC(=O)O)c2)cc1C(F)(F)F [Exp. 5-62, (R)-3-(4′-(N-(3-(1-(2,3-dihydro-1H-inden-2-yl)-2-methylpropan-2-ylamino)-2-hydroxypropyl)-N-methylsulfamoyl)-4-fluoro-3′-(trifluoromethyl)biphenyl-3-yl)propionic acid]
≤ 0.3 µM	CN(C[C@H](O)CNC(C)(C)CCCc1ccsc1)S(=O)(=O)c1cc(-c2cccc(CCC(=O)O)c2)cc(C(F)(F)F)c1 [Exp. 9-73, (R)-3-(3′-(N-(2-hydroxy-3-(2-methyl-5-(thiophen-3-yl)pentan-2-ylamino)propyl)-N-methylsulfamoyl)-5′-(trifluoromethyl)biphenyl-3-yl)propionic acid]
0.3 to 1 µM	CN(C[C@H](O)CNC(C)(C)Cc1ccc2ccccc2c1)S(=O)(=O)c1ccc(-c2cc(C(=O)O)cc([N+](=O)[O-])c2)cc1 [Exp. 3-40, (R)-4′-(N-(2-hydroxy-3-(2-methyl-1-(naphthalen-2-yl)propan-2-ylamino)propyl)-N-methylsulfamoyl)-5-nitrobiphenyl-3-carboxylic acid]
≤ 0.3 µM	CN(C[C@H](O)CNC(C)(C)CC1Cc2ccccc2C1)S(=O)(=O)c1cc(F)c(-c2cccc(CCC(=O)O)c2)cc1F [Exp. 3-180, (R)-3-(4′-(N-(3-(1-(2,3-dihydro-1H-inden-2-yl)-2-methylpropan-2-ylamino)-2-hydroxypropyl)-N-methylsulfamoyl)-2′,5′-difluorobiphenyl-3-yl)propionic acid]
≤ 0.3 µM	CN(C[C@H](O)CNC(C)(C)CCCc1ccccc1)S(=O)(=O)c1cc(OCC(=O)O)cc(C(F)(F)F)c1 [Exp. 9-179, (R)-2-(3-(N-(2-hydroxy-3-(2-methyl-5-phenylpentan-2-ylamino)propyl)-N-methylsulfamoyl)-5-(trifluoromethyl)phenyloxy)acetic acid]
≤ 0.3 µM	CN(C[C@H](O)CNC(C)(C)CC1Cc2ccccc2C1)S(=O)(=O)c1cccc(-c2c(Cl)cc(C(=O)O)cc2Cl)c1 [Exp. 3-228, (R)-2,6-dichloro-3′-(N-(3-(1-(2,3-dihydro-1H-inden-2-yl)-2-methylpropan-2-ylamino)-2-hydroxypropyl)-N-methylsulfamoyl)biphenyl-4-carboxylic acid]
≤ 0.3 µM	Cc1cc(CCC(=O)O)sc1-c1cc(C(F)(F)F)cc(S(=O)(=O)N(C)C[C@H](O)CNC(C)(C)CCCc2ccccc2)c1 [Exp. 6-1, (R)-3-(5-(3-(N-(2-hydroxy-3-(2-methyl-5-phenylpentan-2-ylamino)propyl)-N-methylsulfamoyl)-5-(trifluoromethyl)phenyl)-4-methylthiophen-2-yl)propionic acid]
≤ 0.3 µM	CN(C[C@H](O)CNC(C)(C)Cc1ccc2ccccc2c1)S(=O)(=O)c1ccc(-c2cccc(C(=O)O)c2)cc1 [Exp. 3-30, (R)-4′-(N-(2-hydroxy-3-(2-methyl-1-(naphthalen-2-yl)propan-2-ylamino)propyl)-N-methylsulfamoyl)biphenyl-3-carboxylic acid]
1 to 3 µM	CN(C[C@H](O)CNC(C)(C)Cc1ccc2ccccc2c1)S(=O)(=O)c1cccc(-c2ccc(C(=O)O)cc2[N+](=O)[O-])c1 [Exp. 3-20, (R)-3′-(N-(2-hydroxy-3-(2-methyl-1-(naphthalen-2-yl)propan-2-ylamino)propyl)-N-methylsulfamoyl)-2-nitrobiphenyl-4-carboxylic acid]
≤ 0.3 µM	CCc1cc(-c2ccc(CCC(=O)O)c(F)c2)ccc1S(=O)(=O)N(C)C[C@H](O)CNC(C)(C)CC1Cc2ccccc2C1 [Exp. 5-58, (R)-3-(4′-(N-(3-(1-(2,3-dihydro-1H-inden-2-yl)-2-methylpropan-2-ylamino)-2-hydroxypropyl)-N-methylsulfamoyl)-3′-ethyl-3-fluorobiphenyl-4-yl)propionic acid]
≤ 0.3 µM	CN(C[C@H](O)CNC(C)(C)Cc1ccc2ccccc2c1)S(=O)(=O)c1cccc(-c2ccc(C(=O)O)c(N)c2)c1 [Exp. 3-10, (R)-3-amino-3′-(N-(2-hydroxy-3-(2-methyl-1-(naphthalen-2-yl)propan-2-ylamino)propyl)-N-methylsulfamoyl)biphenyl-4-carboxylic acid]
